Broadly, the Ki is the equilibrium dissociation constant of an inhibitor or competing ligand from its target. Read a low Ki as a stronger hold on the target.

Five compounds from ChEMBL document CHEMBL1123742, “Isozyme-specific enzyme inhibitors. 13. S-[5'(R)-[(N-triphosphoamino)methyl]adenosyl]-L-homocysteine, a potent inhibitor of rat methionine adenosyltransferases” (J Med Chem, 1987) can be followed below.

Common to all, as to type: protein assay
The target in assay [1] is T1, S-adenosylmethionine synthetase (MAT 1 and MAT 2) (Rattus norvegicus, UniProt P13444+P18298). As to the kind of experiment: Inhibition constant of compound with kidney (M-2) form of rat methionine adenosyltransferase when ATP was used as variable substrate;Competitive type of inhibition.
Assay [2] addresses T1, S-adenosylmethionine synthetase (MAT 1 and MAT 2). The experiment in a line: Inhibition constant of compound with Novikoff ascitic hepatoma (M-T) form of rat methionine adenosyltransferase when ATP was used as variable substrate;Competitive type of inhibition.
The target is the same in assay [3]. As to the kind of experiment: Inhibition constant of compound with Novikoff ascitic hepatoma (M-T) form of rat methionine adenosyltransferase when methionine was used as variable substrate;Simple non-competitive type of inhibition.
The target is the same in assay [4]. As to the kind of experiment: Inhibition constant of compound with kidney (M-2) form of rat methionine adenosyltransferase when methionine was used as variable substrate;Simple non-competitive type of inhibition.

In assay [1], `Nc1ncnc2c1ncn2[C@@H]1O[C@H](C(CP(=O)(O)OP(=O)(O)OP(=O)(O)O)SCCC(N)C(=O)O)[C@@H](O)[C@H]1O` (single isomer, unassigned; isomer B) displayed a Ki of 180 µM. For the compound `Nc1ncnc2c1ncn2C1O[C@H]([C@H](CNP(=O)(O)OP(=O)(O)OP(=O)(O)O)SCCC(N)C(=O)O)[C@@H](O)[C@H]1O` (some centres undefined), the Ki in assay [2] came to 0.27 µM; in assay [3] it was 2.3 µM; in assay [4] it was 3 µM; in assay [1] it was 0.36 µM. The compound `Nc1ncnc2c1ncn2[C@@H]1O[C@H](C(CP(=O)(O)OP(=O)(O)OP(=O)(O)O)SCCC(N)C(=O)O)[C@@H](O)[C@H]1O` (single isomer, unassigned; isomer A) returned a Ki in assay [1] of 39 µM.

As for `Nc1ncnc2c1ncn2C1O[C@H](CCNP(=O)(O)OP(=O)(O)OP(=O)(O)O)[C@@H](O)[C@H]1O` (some centres undefined), the Ki in assay [4] is 580 µM; in assay [1], 14 µM. The compound `Nc1ncnc2c1ncn2[C@@H]1O[C@H]([C@@H](CNP(=O)(O)OP(=O)(O)OP(=O)(O)O)SCCC(N)C(=O)O)[C@@H](O)[C@H]1O` (some centres undefined) yielded an inhibition constant Ki in assay [2] of 20 µM.
